Measured values reported in patent publication US9771359B1, “Substituted oxazole- and thiazole-based carboxamide and urea derivatives as vanilloid receptor ligands II” (MEDIFRON DBT INC., priority 2014, dated 2017).

Biological target: vanilloid receptor 1 (VR1/TRPV1) (Homo sapiens (Human), UniProt Q8NER1)
Assay: FLIPR assay, Ca2+ influx in CHO K1 cells transfected with the human VR1 gene
Assay type: cell-based
Details: for compound-alone effect on Ca2+ influx (agonist / partial agonist): compound 5 μM, % activation compared with control capsaicin 10 μM; for Ki: displacement of capsaicin 100 nM, Ki from IC50 by Cheng-Prusoff equation, read-out: (f) Ki (human) [nM] Cap
Experimental: Furthermore, preference may be given to compounds according to the first aspect of the invention that cause a 50% displacement of capsaicin, which is present at a concentration of 100 nM, in a FLIPR assay with CHO K1 cells which were transfected with the human VR1 gene at a concentration of less than 2 000 nM, preferably less than 1 000 nM, particularly preferably less than 300 nM, most particularly preferably less than 100 nM, even more preferably less than 75 nM, additionally preferably less than 50 nM, most preferably less than 10 nM. In the process, the Ca^2+ influx is quantified in the FLIPR assay with the aid of a Ca^2+-sensitive dye (type Fluo-4, Molecular Probes Europe BV, Leiden, the Netherlands) in a fluorescent imaging plate reader (FLIPR, Molecular Devices, Sunnyvale, USA), as described hereinafter.
The FLIPR protocol consists of 2 substance additions during a kinetic measurement. First the compounds to be tested (5 μM) are pipetted onto the cells and the Ca^2+ influx is determined in comparison to the control (capsaicin 10 μM), providing the result as % activation and representing the compound-alone effect (calculation at peak signal related to baseline). […] After 5 min incubation, the Ca^2+ influx is related to an injection of 100 nM of capsaicin and thereby the antagonistic effect of the test compounds detected.
Desensitising agonists and antagonists lead to suppression of the Ca^2+ influx. The % inhibition is calculated compared to the maximum achievable inhibition with 10 μM of capsaicin. Triple analyses (n=3) are carried out and repeated in at least 3 independent experiments.
Starting from the percentage displacement caused by different concentrations of the compounds to be tested of general formula I, IC50 inhibitory concentrations which cause a 50-% displacement of capsaicin were calculated. Ki values for the test substances were obtained by conversion by means of the Cheng-Prusoff equation (Cheng, Prusoff; Biochem. Pharmacol. 22, 3099-3108, 1973).
Chinese hamster ovary cells (CHO K1 cells, European Collection of Cell Cultures (ECACC) United Kingdom) are stably transfected with the VR1 gene. For functional testing, these cells are plated out on poly-D-lysine-coated black 96-well plates having a clear base (BD Biosciences, Heidelberg, Germany) at a density of 25,000 cells/well. The cells are incubated overnight at 37° C. and 5% CO2 in a culture medium (Ham's F12 nutrient mixture, 10% by volume of FCS (foetal calf serum), 18 μg/ml of L-proline). The next day the cells are incubated with Fluo-4 (Fluo-4 2 μM, 0.01% by volume of Pluronic F127, Molecular Probes in HBSS (Hank's buffered saline solution), Gibco Invitrogen GmbH, Karlsruhe, Germany) for 30 min at 37° C. Subsequently, the plates are washed three times with HBSS buffer and after further incubation for 15 min at RT used for Ca^2+ measurement in a FLIPR assay. The Ca^2+-dependent fluorescence is measured before and after the addition of the substances to be tested (λex wavelength=488 nm, λem=540 nm). Quantification is carried out by measuring the highest fluorescence intensity (FC, fluorescence counts) over time.

Chain of vanilloid receptor 1 (VR1/TRPV1) (Q8NER1 whole entry): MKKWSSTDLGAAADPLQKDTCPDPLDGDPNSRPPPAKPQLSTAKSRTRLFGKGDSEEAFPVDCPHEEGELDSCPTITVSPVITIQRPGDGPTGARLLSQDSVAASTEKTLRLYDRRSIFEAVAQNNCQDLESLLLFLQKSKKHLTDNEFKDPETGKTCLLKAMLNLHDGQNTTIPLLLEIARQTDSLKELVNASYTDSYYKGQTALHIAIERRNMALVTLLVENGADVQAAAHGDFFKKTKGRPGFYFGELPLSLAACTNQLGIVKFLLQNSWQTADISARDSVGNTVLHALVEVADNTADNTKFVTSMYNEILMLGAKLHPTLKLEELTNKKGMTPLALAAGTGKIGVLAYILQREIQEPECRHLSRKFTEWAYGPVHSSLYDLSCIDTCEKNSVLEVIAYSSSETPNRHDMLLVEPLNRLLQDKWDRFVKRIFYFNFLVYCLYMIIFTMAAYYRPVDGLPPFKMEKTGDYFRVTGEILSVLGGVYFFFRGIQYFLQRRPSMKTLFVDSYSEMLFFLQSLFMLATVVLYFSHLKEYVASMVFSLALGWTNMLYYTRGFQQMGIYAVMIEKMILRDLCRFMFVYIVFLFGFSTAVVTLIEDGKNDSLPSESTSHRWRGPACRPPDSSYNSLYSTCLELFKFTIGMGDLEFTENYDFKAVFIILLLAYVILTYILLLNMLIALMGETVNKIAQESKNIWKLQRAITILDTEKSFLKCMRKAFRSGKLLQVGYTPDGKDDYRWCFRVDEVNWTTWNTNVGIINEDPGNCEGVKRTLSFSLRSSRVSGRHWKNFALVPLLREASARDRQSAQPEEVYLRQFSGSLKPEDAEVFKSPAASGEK

SMILES | compound-alone effect on Ca2+ influx (agonist / partial agonist) | Ki
CC(C)(C)c1nc(-c2cccc(Cl)c2)c(CNC(=O)Nc2cccc3ncccc23)s1 [EX-53, 1-((2-(tert-butyl)-4-(3-chlorophenyl)thiazol-5-yl)methyl)-3-(quinolin-5-yl)urea] | AG (a Ca^2+ influx of >60% relates to a pure agonist (AG)) | 
CC(C)(C)c1nc(-c2cccc(Cl)c2)c(CNC(=O)Nc2ccc3c(c2)OCCO3)s1 [EX-54, 1-((2-(tert-butyl)-4-(3-chlorophenyl)thiazol-5-yl)methyl)-3-(2,3-dihydrobenzo[b][1,4]dioxin-6-yl)urea] |  | 5.9 nM
CC(C)(C)c1nc(-c2cccc(Cl)c2)c(CNC(=O)Nc2ccc3c(c2)CCC3)s1 [EX-55, 1-((2-(tert-butyl)-4-(3-chlorophenyl)thiazol-5-yl)methyl)-3-(2,3-dihydro-1H-inden-5-yl)urea] |  | 12.3 nM
CC(C)(C)c1nc(-c2cccc(Cl)c2)c(CNC(=O)Nc2cccc3cnccc23)s1 [EX-56, 1-((2-(tert-butyl)-4-(3-chlorophenyl)thiazol-5-yl)methyl)-3-(isoquinolin-5-yl)urea] |  | 0.1 nM
CC(C)(C)c1nc(-c2cccc(Cl)c2)c(CNC(=O)Nc2ccc(CNS(C)(=O)=O)c(F)c2)s1 [EX-57, N-(4-(3-((2-(tert-butyl)-4-(3-chlorophenyl)thiazol-5-yl)methyl)ureido)-2-fluorobenzyl)methanesulfonamide] |  | 6.6 nM
Cc1cccc(-c2nc(C(C)(C)C)sc2CNC(=O)Nc2ccc(CNS(C)(=O)=O)c(F)c2)c1 [EX-58, N-(4-(3-((2-(tert-butyl)-4-(m-tolyl)thiazol-5-yl)methyl)ureido)-2-fluorobenzyl)methanesulfonamide] |  | 2.3 nM
CC(C)(C)c1nc(-c2cccc(Cl)c2)c(CNC(=O)Nc2ccc(CO)c(F)c2)s1 [EX-59, 1-((2-(tert-butyl)-4-(3-chlorophenyl)thiazol-5-yl)methyl)-3-(3-fluoro-4-(hydroxymethyl)phenyl)urea] | pAG (A Ca^2+ influx of 10%-60% reveals a partial agonist (pAG)) | 1.1 nM
Cc1cccc(-c2nc(C(C)(C)C)sc2CNC(=O)Nc2ccc(CO)c(F)c2)c1 [EX-60, 1-((2-(tert-butyl)-4-(m-tolyl)thiazol-5-yl)methyl)-3-(3-fluoro-4-(hydroxymethyl)phenyl)urea] | pAG (A Ca^2+ influx of 10%-60% reveals a partial agonist (pAG)) | 3.2 nM
